Read-outs that look alike come from different tables or passages of the source.
Test system: SARS-CoV-2 (USA-WA1/2020) in Calu-3 cells
Assay type: cell-based
[1] = high dose (10 µM), Calu-3, 48 h
[2] = low dose (100 nM), Calu-3, 48 h

SMILES: CCN(CC)CCCCNc1ncc2cc(-c3cc(OC)cc(OC)c3)c(NC(=O)NC(C)(C)C)nc2n1 [PD 173074]
- dsRNA signal, AU High [1]: 6568.6 AU
- dsRNA signal, AU Low [2]: 3359.6 AU

SMILES: Cc1cc(CS(=O)(=O)c2ccccc2)cc(OCc2ccc(CN3CCC[C@@H]3CO)cc2)c1 [PF-543]
- dsRNA signal, AU High [1]: 28127.6 AU
- dsRNA signal, AU Low [2]: 66805.4 AU

SMILES: Cn1cc(-c2[nH]c3cc(NC(=O)[C@H](N)C4CCCCC4)cc4c3c2C=NNC4=O)cn1 [PF-477736]
- dsRNA signal, AU High [1]: 45938.3 AU
- dsRNA signal, AU Low [2]: 24364.8 AU

SMILES: CN(c1ncccc1CNc1nc(Nc2ccc3c(c2)CC(=O)N3)ncc1C(F)(F)F)S(C)(=O)=O [PF-562271]
- dsRNA signal, AU High [1]: 0.0 AU
- dsRNA signal, AU Low [2]: 690.0 AU

SMILES: Nc1nccc(-c2c(-c3ccc(F)cc3)ncn2C2CCCCC2)n1 [PF-670462]
- dsRNA signal, AU High [1]: 1350.7 AU
- dsRNA signal, AU Low [2]: 18716.0 AU

SMILES: OCCn1cc(-c2cnc3nnn(Cc4ccc5ncccc5c4)c3n2)cn1 [PF-04217903]
- dsRNA signal, AU High [1]: 9610.7 AU
- dsRNA signal, AU Low [2]: 2049.9 AU

SMILES: N#Cc1cccc(-c2c[nH]c3ncnc(N4CCOCC4)c23)c1 [PF-06447475]
- dsRNA signal, AU High [1]: 53174.2 AU
- dsRNA signal, AU Low [2]: 40604.3 AU

SMILES: CNC(=O)c1ccc(C)c(-n2c(C)cc(OCc3ccc(F)cc3F)c(Br)c2=O)c1 [PH-797804]
- dsRNA signal, AU High [1]: 733.9 AU
- dsRNA signal, AU Low [2]: 57938.0 AU

SMILES: Cc1[nH]c(/C=C2\C(=O)Nc3ccc(S(=O)(=O)Cc4c(Cl)cccc4Cl)cc32)c(C)c1C(=O)N1CCC[C@@H]1CN1CCCC1 [PHA-665752]
- dsRNA signal, AU High [1]: 34815.2 AU
- dsRNA signal, AU Low [2]: 11571.8 AU

SMILES: Oc1cccc(-c2nc(N3CCOCC3)c3oc4ncccc4c3n2)c1 [PI-103]
- dsRNA signal, AU High [1]: 0.0 AU
- dsRNA signal, AU Low [2]: 40731.1 AU

SMILES: Fc1ccc2[nH]ccc2c1-c1nc(N2CCOCC2)c2sc(CN3CCN(CC4CC4)CC3)cc2n1 [PI-3065]
- dsRNA signal, AU High [1]: 625.6 AU
- dsRNA signal, AU Low [2]: 44145.1 AU

SMILES: Cc1ccc([N+](=O)[O-])cc1S(=O)(=O)N(C)/N=C/c1cnc2ccc(Br)cn12 [PIK-75]
- dsRNA signal, AU High [1]: 6934.4 AU
- dsRNA signal, AU Low [2]: 3754.5 AU

SMILES: FC(F)(F)c1ccc(CNc2ccc(Cc3c[nH]c4ncccc34)cn2)cc1 [PLX647]
- dsRNA signal, AU High [1]: 24285.0 AU
- dsRNA signal, AU Low [2]: 52941.2 AU

SMILES: CC(C)n1nc(-c2cc3cc(O)ccc3[nH]2)c2c(N)ncnc21 [PP242]
- dsRNA signal, AU High [1]: 7321.2 AU
- dsRNA signal, AU Low [2]: 32614.7 AU

SMILES: CC(C)(C)n1nc(-c2ccc(Cl)cc2)c2c(N)ncnc21 [PP 2 (AG 1879)]
- dsRNA signal, AU High [1]: 53589.5 AU
- dsRNA signal, AU Low [2]: 40414.9 AU

SMILES: CCOC(=O)c1ccc(N2NC(=O)/C(=C/c3ccc([N+](=O)[O-])o3)C2=O)cc1 [PYR-41]
- dsRNA signal, AU High [1]: 41809.3 AU
- dsRNA signal, AU Low [2]: 6659.6 AU

SMILES: COc1ccc(COc2cc3oc(=O)c4cc(C(C)O)ccc4c3cc2OC)cc1 (stereo not drawn) [Palomid 529]
- dsRNA signal, AU High [1]: 5778.6 AU
- dsRNA signal, AU Low [2]: 4358.2 AU

SMILES: Cc1ccc(Nc2nccc(N(C)c3ccc4c(C)n(C)nc4c3)n2)cc1S(N)(=O)=O [Pazopanib (GW-786034)]
- dsRNA signal, AU High [1]: 41143.8 AU
- dsRNA signal, AU Low [2]: 22671.3 AU

SMILES: FC(F)(F)c1ccc(CNc2ccc(Cc3c[nH]c4ncc(Cl)cc34)cn2)cn1 [Pexidartinib (PLX3397)]
- dsRNA signal, AU High [1]: 64762.3 AU
- dsRNA signal, AU Low [2]: 40586.0 AU

SMILES: Oc1cc(O)cc(/C=C/c2ccc(O)c(O)c2)c1 [Piceatannol]
- dsRNA signal, AU High [1]: 12025.1 AU
- dsRNA signal, AU Low [2]: 48262.2 AU

SMILES: O=C(NC[C@H](O)CO)c1ccncc1Nc1ccc(I)cc1F [Pimasertib (AS-703026)]
- dsRNA signal, AU High [1]: 11387.3 AU
- dsRNA signal, AU Low [2]: 3667.2 AU

SMILES: O=C(O)C[C@H](O)C[C@H](O)/C=C/c1c(C2CC2)nc2ccccc2c1-c1ccc(F)cc1 [Pitavastatin Calcium]
- dsRNA signal, AU High [1]: 16024.1 AU
- dsRNA signal, AU Low [2]: 23195.0 AU

SMILES: O=C(O)C[C@H](O)C[C@H](O)/C=C/c1c(C2CC2)nc2ccccc2c1-c1ccc(F)cc1 [Pitavastatin]
- dsRNA signal, AU High [1]: 8150.8 AU
- dsRNA signal, AU Low [2]: 10215.5 AU

SMILES: CC1=CC(=O)C(C(C)C)=C/C1=N/OC(=O)c1ccccc1C [Poloxin]
- dsRNA signal, AU High [1]: 3268.7 AU
- dsRNA signal, AU Low [2]: 59035.4 AU

SMILES: C=CC(=O)N1CCC(Oc2cc3c(Nc4ccc(Cl)c(Cl)c4F)ncnc3cc2OC)CC1 [Poziotinib]
- dsRNA signal, AU High [1]: 19439.7 AU
- dsRNA signal, AU Low [2]: 63934.7 AU

SMILES: CC(C)[C@H](CO)Nc1nc(Nc2cccc(Cl)c2)c2ncn(C(C)C)c2n1 [Purvalanol A]
- dsRNA signal, AU High [1]: 51443.1 AU
- dsRNA signal, AU Low [2]: 865.0 AU

SMILES: CC(C)[C@H](CO)Nc1nc(Nc2ccc(C(=O)O)c(Cl)c2)c2ncn(C(C)C)c2n1 [Purvalanol B]
- dsRNA signal, AU High [1]: 4137.6 AU
- dsRNA signal, AU Low [2]: 7805.6 AU

SMILES: O=c1c(O)c(-c2ccc(O)c(O)c2)oc2cc(O)cc(O)c12 [Quercetin dihydrate]
- dsRNA signal, AU High [1]: 25411.6 AU
- dsRNA signal, AU Low [2]: 6435.1 AU

SMILES: CC(C)(C)c1cc(NC(=O)Nc2ccc(-c3cn4c(n3)sc3cc(OCCN5CCOCC5)ccc34)cc2)no1 [Quizartinib (AC220)]
- dsRNA signal, AU High [1]: 4499.9 AU
- dsRNA signal, AU Low [2]: 17036.5 AU

SMILES: COc1cc(Nc2ncc(F)c(Nc3ccc4c(n3)NC(=O)C(C)(C)O4)n2)cc(OC)c1OC [R406 (free base)]
- dsRNA signal, AU High [1]: 42129.8 AU
- dsRNA signal, AU Low [2]: 55638.2 AU

SMILES: COc1ccc(/C=C(\C#N)c2cccnc2)cc1OC [RG 13022]
- dsRNA signal, AU High [1]: 36154.5 AU
- dsRNA signal, AU Low [2]: 2414.3 AU

SMILES: O=C(NCc1cccc(O)c1)Nc1nc(-c2ccncc2)cs1 [RKI-1447]
- dsRNA signal, AU High [1]: 1722.0 AU
- dsRNA signal, AU Low [2]: 7250.9 AU

SMILES: CN1CCN(c2ccc(Nc3cc(-c4cccc(-n5ccc6cc(C7CC7)cc(F)c6c5=O)c4CO)cn(C)c3=O)nc2)CC1 [RN486]
- dsRNA signal, AU High [1]: 3432.0 AU
- dsRNA signal, AU Low [2]: 25024.9 AU

SMILES: Cc1cn(-c2cc(NC(=O)c3ccc(C)c(Nc4nccc(-c5cnccn5)n4)c3)cc(C(F)(F)F)c2)cn1 [Radotinib(IY-5511)]
- dsRNA signal, AU High [1]: 11726.8 AU
- dsRNA signal, AU Low [2]: 29413.0 AU

SMILES: CO[C@H]1C[C@@H]2CC[C@@H](C)[C@@](O)(O2)C(=O)C(=O)N2CCCC[C@H]2C(=O)O[C@H]([C@H](C)C[C@@H]2CC[C@@H](O)[C@H](OC)C2)CC(=O)[C@H](C)/C=C(\C)[C@@H](O)[C@@H](OC)C(=O)[C@H](C)C[C@H](C)/C=C/C=C/C=C/1C [Rapamycin (Sirolimus)]
- dsRNA signal, AU High [1]: 1745.1 AU
- dsRNA signal, AU Low [2]: 58744.6 AU

SMILES: CNC(=O)c1cc(Oc2ccc(NC(=O)Nc3ccc(Cl)c(C(F)(F)F)c3)c(F)c2)ccn1.Cl [Regorafenib hydrochloride]
- dsRNA signal, AU High [1]: 724.9 AU
- dsRNA signal, AU Low [2]: 22021.0 AU

SMILES: CNC(=O)c1cc(Oc2ccc(NC(=O)Nc3ccc(Cl)c(C(F)(F)F)c3)c(F)c2)ccn1 [Regorafenib]
- dsRNA signal, AU High [1]: 93.0 AU
- dsRNA signal, AU Low [2]: 63322.3 AU

SMILES: Oc1ccc(/C=C/c2cc(O)cc(O)c2)cc1 [Resveratrol]
- dsRNA signal, AU High [1]: 13503.5 AU
- dsRNA signal, AU Low [2]: 6902.6 AU

SMILES: c1nc2nc(Nc3ccc(N4CCOCC4)cc3)nc(NC3CCCCC3)c2[nH]1 [Reversine]
- dsRNA signal, AU High: 27234.6
- dsRNA signal, AU Low: 49415.3

— PMC12142043, “Cell-based high-content approach for SARS-CoV-2 neutralization identifies unique monoclonal antibodies and PI3K pathway inhibitors” (Frontiers in Cell and Developmental Biology, 2025)
